Source: US11998539B2, “Substituted aminoquinolones as DGKalpha inhibitors for immune activation” (Bayer Aktiengesellschaft, priority 2019, dated 2024)

Biological target: DGKα (Homo sapiens (Human), UniProt P23743)
Assay: Human DGKα kinase activity inhibition assay (ADP-Glo)
Assay type: biochemical
Settings: recombinant full-length human DGKα, 55 μM ATP, 7 μM 1,2-dioleoyl-sn-glycerol, read-out: IC50 values of examples in in vitro human DGKa kinase activity inhibition assays
Experimental: Human DGKα Kinase Activity Inhibition Assay
Human DGKα inhibitory activity of compounds of the present invention was quantified employing the human DGKα kinase activity assay as described in the following paragraphs. In essence, the enzyme activity was measured by quantification of the adenosine-di-phosphate (ADP) generated as a co-product of the enzyme reaction via the “ADP-Glo™ Kinase Assay” kit from the company Promega. This detection system works as follows: In a first step the ATP not consumed in the kinase reaction is quantitatively converted to cAMP employing an adenylate cyclase (“ADP-Glo-reagent”), then the adenylate cyclase is stopped and the ADP generated in the kinase reaction converted to ATP, which subsequently generates in a luciferase-based reaction a glow-luminescence signal (“Kinase Detection Reagent”).
C-terminally FLAG-tagged, recombinant full-length human DGKα (expressed in baculovirus infected insect cells, purified using anti-Flag pulldown and size exclusion chromatography as described below, DGKa_hu_1) was used as enzyme. As substrate for the kinase 1,2-dioleoyl-sn-glycerol, reconstituted in octyl-β-D-glucopyranoside micelles, was used. […] Then 35 volumes of 50 mM MOPS buffer (pH 7.4) were added to yield a solution of 0.28 mM 1,2 dioleoyl-sn-glycerol and 200 mM […], which was aliquoted, flash-frozen in liquid nitrogen, and stored at −20° C. until use.
For the assay 50 nl of a 100-fold concentrated solution of the test compound in dimethyl sulfoxide (DMSO, Sigma) was pipetted into either a white 1536-well or a white low-volume 384-well microtiter plate (both Greiner Bio-One, Frickenhausen, Germany).

DGKα, sequence (P23743 other isoform, or with tags, fused parts or gaps): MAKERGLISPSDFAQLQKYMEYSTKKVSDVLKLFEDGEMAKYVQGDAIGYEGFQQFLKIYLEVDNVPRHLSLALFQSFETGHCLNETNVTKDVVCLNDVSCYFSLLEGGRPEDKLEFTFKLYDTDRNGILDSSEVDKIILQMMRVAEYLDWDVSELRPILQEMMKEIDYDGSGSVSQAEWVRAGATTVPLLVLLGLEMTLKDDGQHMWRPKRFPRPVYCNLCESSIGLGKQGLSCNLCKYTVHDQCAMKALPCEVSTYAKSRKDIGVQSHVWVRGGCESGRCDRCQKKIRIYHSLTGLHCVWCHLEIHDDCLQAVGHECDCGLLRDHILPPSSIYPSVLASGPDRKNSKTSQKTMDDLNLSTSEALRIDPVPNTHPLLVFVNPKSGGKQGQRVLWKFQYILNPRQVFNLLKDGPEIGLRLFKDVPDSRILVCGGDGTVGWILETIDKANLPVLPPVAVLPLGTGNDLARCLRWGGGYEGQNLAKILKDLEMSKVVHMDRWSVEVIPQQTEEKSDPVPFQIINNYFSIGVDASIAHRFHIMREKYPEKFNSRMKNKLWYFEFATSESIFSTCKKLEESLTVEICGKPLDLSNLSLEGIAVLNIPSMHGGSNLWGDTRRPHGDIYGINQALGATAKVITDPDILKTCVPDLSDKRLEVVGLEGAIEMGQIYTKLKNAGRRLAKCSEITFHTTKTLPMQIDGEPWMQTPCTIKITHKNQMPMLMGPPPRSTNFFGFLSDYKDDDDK

SMILES | IC50 [nM]
Cc1ccc2oc(C3CCN(c4c(C#N)c(=O)n(C)c5cc(OC6COC6)ccc45)CC3)nc2c1 [Example 385, 1-methyl-4-[4-(5-methyl-1,3-benzoxazol-2-yl)piperidin-1-yl]-7-[(oxetan-3-yl)oxy]-2-oxo-1,2-dihydroquinoline-3-carbonitrile] | 0.9
Cc1c(C#N)cccc1C1CCN(c2c(C#N)c(=O)n(C)c3ccccc23)CC1 [Example 64, 4-[4-(3-cyano-2-methylphenyl)piperidin-1-yl]-1-methyl-2-oxo-1,2-dihydroquinoline-3-carbonitrile] | 73
COc1ccc(C2CCN(c3c(C#N)c(=O)n(C)c4cc(C5=CCOCC5)ccc34)CC2)cc1 [Example 100, 7-(3,6-dihydro-2H-pyran-4-yl)-4-[4-(4-methoxyphenyl)piperidin-1-yl]-1-methyl-2-oxo-1,2-dihydroquinoline-3-carbonitrile] | 2.3
Cn1c(=O)c(C#N)c(N2CCC(c3nc4ccccc4o3)CC2)c2cc(F)ccc21 [Example 206, 4-[4-(1,3-benzoxazol-2-yl)piperidin-1-yl]-6-fluoro-1-methyl-2-oxo-1,2-dihydroquinoline-3-carbonitrile] | 0.8
Cn1c(=O)c(C#N)c(N2CCC(c3cccc(C(F)F)c3)CC2)c2ccccc21 [Example 87, 4-{4-[3-(difluoromethyl)phenyl]piperidin-1-yl}-1-methyl-2-oxo-1,2-dihydroquinoline-3-carbonitrile] | 7.1
Cc1ccc2oc(C3CCN(c4c(C(N)=O)c(=O)n(C)c5cc(Cl)ccc45)CC3)nc2c1 [Example 301, 7-chloro-1-methyl-4-[4-(5-methyl-1,3-benzoxazol-2-yl)piperidin-1-yl]-2-oxo-1,2-dihydroquinoline-3-carboxamide] | 1.4
Cn1c(=O)c(C(N)=O)c(N2CCC(c3ccc(OC(F)(F)F)cc3)CC2)c2ccccc21 [Example 108, 1-methyl-2-oxo-4-{4-[4-(trifluoromethoxy)phenyl]piperidin-1-yl}-1,2-dihydroquinoline-3-carboxamide] | 1.8
Cc1ccc2oc(C3CCN(c4c(C(N)=O)c(=O)n(C)c5ccc(P(C)(C)=O)cc45)CC3)nc2c1 [Example 453, 6-(dimethylphosphoryl)-1-methyl-4-[4-(5-methyl-1,3-benzoxazol-2-yl)piperidin-1-yl]-2-oxo-1,2-dihydroquinoline-3-carboxamide] | 598
Cn1c(=O)c(C#N)c(N2CCC(c3nc4cc(F)ccc4s3)CC2)c2ccccc21 [Example 13, 4-[4-(5-fluoro-1,3-benzothiazol-2-yl)piperidin-1-yl]-1-methyl-2-oxo-1,2-dihydroquinoline-3-carbonitrile] | 5.1
Cc1ccccc1-c1noc(C2CCN(c3c(C#N)c(=O)n(C)c4cc(O)c(Br)cc34)CC2)n1 [Example 531, 6-bromo-7-hydroxy-1-methyl-4-{4-[3-(2-methylphenyl)-1,2,4-oxadiazol-5-yl]piperidin-1-yl}-2-oxo-1,2-dihydroquinoline-3-carbonitrile] | 8.1
COc1ccc2c(N3CCC(c4ccccc4)CC3)c(C#N)c(=O)n(C)c2c1 [Example 256, 7-methoxy-1-methyl-2-oxo-4-(4-phenylpiperidin-1-yl)-1,2-dihydroquinoline-3-carbonitrile] | 25
CCC1(c2nc3cc(C)ccc3o2)CCN(c2c(C#N)c(=O)n(C)c3cc(Br)ccc23)CC1 [Example 141, 7-bromo-4-[4-ethyl-4-(5-methyl-1,3-benzoxazol-2-yl)piperidin-1-yl]-1-methyl-2-oxo-1,2-dihydroquinoline-3-carbonitrile] | 5.6
Cc1ccc(-c2csc(C3CCN(c4c(C#N)c(=O)n(C)c5ccccc45)CC3)n2)cc1 [Example 374, 1-methyl-4-{4-[4-(4-methylphenyl)-1,3-thiazol-2-yl]piperidin-1-yl}-2-oxo-1,2-dihydroquinoline-3-carbonitrile] | 34
Cc1ccc2oc(C3CCN(c4c(C(N)=O)c(=O)n(C)c5cc(OCC(N)=O)ccc45)CC3)nc2c1 [Example 508, 7-(2-amino-2-oxoethoxy)-1-methyl-4-[4-(5-methyl-1,3-benzoxazol-2-yl)piperidin-1-yl]-2-oxo-1,2-dihydroquinoline-3-carboxamide] | 1.4
Cc1ccc2oc(C3(C)CCN(c4c(C#N)c(=O)n(C)c5cc(C6CC6)ccc45)CC3)nc2c1 [Example 250, 7-cyclopropyl-1-methyl-4-[4-methyl-4-(5-methyl-1,3-benzoxazol-2-yl)piperidin-1-yl]-2-oxo-1,2-dihydroquinoline-3-carbonitrile] | 9.1
COc1ccc2c(N3CCC(C)(c4nc5cc(C)ccc5o4)CC3)c(C#N)c(=O)n(C)c2c1 [Example 248, 7-methoxy-1-methyl-4-[4-methyl-4-(5-methyl-1,3-benzoxazol-2-yl)piperidin-1-yl]-2-oxo-1,2-dihydroquinoline-3-carbonitrile] | 6.9
Cn1c(=O)c(C#N)c(N2CCC(c3cccc4scnc34)CC2)c2ccccc21 [Example 71, 4-[4-(1,3-benzothiazol-4-yl)piperidin-1-yl]-1-methyl-2-oxo-1,2-dihydroquinoline-3-carbonitrile] | 23
Cn1c(=O)c(C(N)=O)c(N2CCC(C)(c3nc4ccccc4o3)CC2)c2ccccc21 [Example 105, 4-[4-(1,3-benzoxazol-2-yl)-4-methylpiperidin-1-yl]-1-methyl-2-oxo-1,2-dihydroquinoline-3-carboxamide] | 1.9
Cc1ccc2c(N3CCC(c4nc5ccccc5o4)CC3)c(C#N)c(=O)n(C)c2c1 [Example 219, 4-[4-(1,3-benzoxazol-2-yl)piperidin-1-yl]-1,7-dimethyl-2-oxo-1,2-dihydroquinoline-3-carbonitrile] | 1.6
COC1(c2cccc(Cl)c2)CCN(c2c(C(N)=O)c(=O)n(C)c3ccccc23)CC1 [Example 451, 4-[4-(3-chlorophenyl)-4-methoxypiperidin-1-yl]-1-methyl-2-oxo-1,2-dihydroquinoline-3-carboxamide] | 163
COc1ccc(C2CCN(c3c(C#N)c(=O)n(C)c4c(F)cccc34)CC2)cc1 [Example 153, 8-fluoro-4-[4-(4-methoxyphenyl)piperidin-1-yl]-1-methyl-2-oxo-1,2-dihydroquinoline-3-carbonitrile] | 45
C=C(c1cc2c(N3CCC(c4nc5cc(C)ccc5o4)CC3)c(C#N)c(=O)n(C)c2cc1OC1CCOC1)C(F)(F)F (racemic) [Example 433, (rac)-1-methyl-4-[4-(5-methyl-1,3-benzoxazol-2-yl)piperidin-1-yl]-2-oxo-7-[(oxolan-3-yl)oxy]-6-(3,3,3-trifluoroprop-1-en-2-yl)-1,2-dihydroquinoline-3-carbonitrile] | 8.6
Cn1c(=O)c(C#N)c(N2CCC(c3nc(-c4cccnc4)no3)CC2)c2ccccc21 [Example 370, 1-methyl-2-oxo-4-{4-[3-(pyridin-3-yl)-1,2,4-oxadiazol-5-yl]piperidin-1-yl}-1,2-dihydroquinoline-3-carbonitrile] | 158
COCc1ccc2oc(C3(C)CCN(c4c(C#N)c(=O)n(C)c5ccccc45)CC3)nc2c1 [Example 391, 4-{4-[5-(methoxymethyl)-1,3-benzoxazol-2-yl]-4-methylpiperidin-1-yl}-1-methyl-2-oxo-1,2-dihydroquinoline-3-carbonitrile] | 8.3
Cc1ccc2oc(C3CCN(c4c(C#N)c(=O)n(C)c5cc(O)ccc45)CC3)nc2c1 [Example 293, 7-hydroxy-1-methyl-4-[4-(5-methyl-1,3-benzoxazol-2-yl)piperidin-1-yl]-2-oxo-1,2-dihydroquinoline-3-carbonitrile] | 2.1
COc1ccc2c(c1)c(N1CCC(c3nc(-c4ccccc4)no3)CC1)c(C#N)c(=O)n2C [Example 437, 6-methoxy-1-methyl-2-oxo-4-[4-(3-phenyl-1,2,4-oxadiazol-5-yl)piperidin-1-yl]-1,2-dihydroquinoline-3-carbonitrile] | 27
COc1ccc2c(c1)c(N1CCC(C)(c3nc4cc(C)ccc4o3)CC1)c(C#N)c(=O)n2C [Example 246, 6-methoxy-1-methyl-4-[4-methyl-4-(5-methyl-1,3-benzoxazol-2-yl)piperidin-1-yl]-2-oxo-1,2-dihydroquinoline-3-carbonitrile] | 6.5
Cn1c(=O)c(C#N)c(N2CCC(c3nc4ccccc4o3)CC2)c2cc(C#N)ccc21 [Example 175, 4-[4-(1,3-benzoxazol-2-yl)piperidin-1-yl]-1-methyl-2-oxo-1,2-dihydroquinoline-3,6-dicarbonitrile] | 4.2
Cc1ccc2oc(C3CCN(c4c(C#N)c(=O)n(C)c5cc(N(C)C6COC6)ccc45)CC3)nc2c1 [Example 398, 1-methyl-4-[4-(5-methyl-1,3-benzoxazol-2-yl)piperidin-1-yl]-7-[methyl(oxetan-3-yl)amino]-2-oxo-1,2-dihydroquinoline-3-carbonitrile] | 1.7
Cn1c(=O)c(C#N)c(N2CCC(c3nc4ccc(Cl)nc4s3)CC2)c2ccccc21 [Example 19, 4-[4-(5-chloro[1,3]thiazolo[5,4-b]pyridin-2-yl)piperidin-1-yl]-1-methyl-2-oxo-1,2-dihydroquinoline-3-carbonitrile] | 15
